# Key:
# NF-κB [1] = assay: NF-κB SEAP reporter assay in THP-1-Blue NF-κB cells, hIL1B stimulated; type: cell-based; details: THP-1-Blue cells, 1 ng/ml hIL1B, 24 h, read-out: NF-κB IL1B IC50
# Procedure: (§1) THP-1-Blue NF-κB cells (InvivoGen) carrying a stable integrated NF-κB-inducible secreted embryonic alkaline phosphatase (SEAP) reporter construct were plated at a concentration of 1×10^5 cells per well. The cells were stimulated with Pam3CSK4 (1 ng/ml) or hIL1B (1 ng/ml). After 10-20 minutes, the cells were then treated with vehicle (DMSO) or serial dilutions of the test compounds (10 doses tested for each test compound, with a […] starting at 1 μM or 3 μM) with a final volume of 200 μL for 24 hours at 37 °C. After 24 hours, the cells were centrifuged and 20 μL supernatant was incubated with 180 μL QUANTI-Blue reagent at 37 °C for 30-60 minutes. The levels of NF-κB-induced was measured in a microplate reader at 620 nm.
# as §1, with “1 mM” for “1 μM”, “3 mM)” for “3 μM)”, “200 mL” for “200 μL”, “20 mL” for “20 μL”, “180 mL” for “180 μL”, “NF-κB-induced gene expression were” for “NF-κB-induced was”
# NF-κB [2] = assay: NF-κB SEAP reporter assay in THP-1-Blue NF-κB cells, Pam3CSK4 stimulated; type: cell-based; details: THP-1-Blue cells, 1 ng/ml Pam3CSK4, 24 h, read-out: NF-κB Pam3SCK4 IC50
# Procedure: as §1
# as §1, with “1 mM” for “1 μM”, “3 mM)” for “3 μM)”, “200 mL” for “200 μL”, “20 mL” for “20 μL”, “180 mL” for “180 μL”, “NF-κB-induced gene expression were” for “NF-κB-induced was”
SMILES,IC50 (NF-κB [1]; Table 15) [nM],IC50 (NF-κB [2]; Table 15) [nM],IC50 (NF-κB [1]; Table 21) [nM],IC50 (NF-κB [2]; Table 21) [nM]
"COc1cn2ncc(-c3nc(N[C@@H]4CCCNC4)ccc3F)c2nc1C1CC1 [Compound 2, (R)-6-(5-cyclopropyl-6-methoxypyrazolo[1,5-a]pyrimidin-3-yl)-5-fluoro-N-(piperidin-3-yl)pyridin-2-amine]",94,71,,
"COc1cn2ncc(-c3nc(N[C@H]4CNCC[C@@H]4F)ccc3F)c2nc1C1CC1 [Compound 3, 6-(5-cyclopropyl-6-methoxypyrazolo[1,5-a]pyrimidin-3-yl)-5-fluoro-N-((3S,4S)-4-fluoropiperidin-3-yl)pyridin-2-amine]",26,22,,
"COc1cn2ncc(-c3ccc(F)c(N[C@H]4CNCC[C@@H]4F)n3)c2nc1C1CC1 [Compound 6, 6-(5-cyclopropyl-6-methoxypyrazolo[1,5-a]pyrimidin-3-yl)-3-fluoro-N-((3S,4S)-4-fluoropiperidin-3-yl)pyridin-2-amine]",219,300,,
"COc1cn2ncc(-c3nc(N[C@H]4CNCC[C@@H]4F)ncc3F)c2nc1C(C)(C)O [Compound 6a, 2-(3-(5-fluoro-2-(((3S,4S)-4-fluoropiperidin-3-yl)amino)pyrimidin-4-yl)-6-methoxypyrazolo[1,5-a]pyrimidin-5-yl)propan-2-ol]",,,52,57
"COc1cn2ncc(-c3ccnc(N[C@H]4CNCC[C@@H]4F)n3)c2nc1C1CC1 [Compound 7a, 4-(5-cyclopropyl-6-methoxypyrazolo[1,5-a]pyrimidin-3-yl)-N-((3S,4S)-4-fluoropiperidin-3-yl)pyrimidin-2-amine]",,,50,55
"COc1cn2ncc(-c3nc(N[C@@H]4CCCNC4)c(C#N)cc3F)c2nc1C(C)(C)O [Compound 9, (R)-5-fluoro-6-(5-(2-hydroxypropan-2-yl)-6-methoxypyrazolo[1,5-a]pyrimidin-3-yl)-2-(piperidin-3-ylamino)nicotinonitrile]",88,39,,
"COc1cn2ncc(-c3nc(N[C@H]4CNCC[C@@H]4F)c(C#N)cc3F)c2nc1C(C)(C)O [Compound 10, 5-fluoro-2-(((3S,4S)-4-fluoropiperidin-3-yl)amino)-6-(5-(2-hydroxypropan-2-yl)-6-methoxypyrazolo[1,5-a]pyrimidin-3-yl)nicotinonitrile]",41,22,,
"COc1cn2ncc(-c3nc(N[C@@H]4CCCNC4)c(F)cc3F)c2nc1C(C)(C)O [Compound 11, (R)-2-(3-(3,5-difluoro-6-(piperidin-3-ylamino)pyridin-2-yl)-6-methoxypyrazolo[1,5-a]pyrimidin-5-yl)propan-2-ol]",101,128,,
"COc1cn2ncc(-c3nc(N[C@H]4CNC[C@@H]4F)c(F)cc3F)c2nc1C(C)(C)O [Compound 12, 2-(3-(3,5-difluoro-6-(((3S,4S)-4-fluoropyrrolidin-3-yl)amino)pyridin-2-yl)-6-methoxypyrazolo[1,5-a]pyrimidin-5-yl)propan-2-ol]",41,42,,
"COc1cn2ncc(-c3nc(N[C@H]4CNCC[C@@H]4F)c(F)cc3F)c2nc1C(C)(C)O [Compound 13, 2-(3-(3,5-difluoro-6-(((3S,4S)-4-fluoropiperidin-3-yl)amino)pyridin-2-yl)-6-methoxypyrazolo[1,5-a]pyrimidin-5-yl)propan-2-ol]",73,99,,
"COc1cn2ncc(-c3cccc(N[C@H]4CNC[C@@H]4F)n3)c2nc1C1CC1 [Compound 19, 6-(5-cyclopropyl-6-methoxypyrazolo[1,5-a]pyrimidin-3-yl)-N-((3S,4S)-4-fluoropyrrolidin-3-yl)pyridin-2-amine]",97,61,,
"COc1cn2ncc(-c3cccc(N[C@@H]4CCCNC4)n3)c2nc1C1CC1 [Compound 20, (R)-6-(5-cyclopropyl-6-methoxypyrazolo[1,5-a]pyrimidin-3-yl)-N-(piperidin-3-yl)pyridin-2-amine]",646,441,,
"COc1cn2ncc(-c3cccc(N[C@H]4CNCC[C@@H]4F)n3)c2nc1C1CC1 [Compound 21, 6-(5-cyclopropyl-6-methoxypyrazolo[1,5-a]pyrimidin-3-yl)-N-((3S,4S)-4-fluoropiperidin-3-yl)pyridin-2-amine]",342,362,,
"COc1cn2ncc(-c3nc(N[C@H]4CNCC[C@@H]4F)c(F)cc3F)c2nc1C1CC1 [Compound 22, 6-(5-cyclopropyl-6-methoxypyrazolo[1,5-a]pyrimidin-3-yl)-3,5-difluoro-N-((3S,4S)-4-fluoropiperidin-3-yl)pyridin-2-amine]",19,7,,

# More lines, now with the values ahead:
IC50 (NF-κB [1]; Table 15) [nM],IC50 (NF-κB [2]; Table 15) [nM],IC50 (NF-κB [1]; Table 21) [nM],IC50 (NF-κB [2]; Table 21) [nM],SMILES
,,46,72,"COc1cn2ncc(-c3ccnc(N[C@H]4CNC[C@@H]4F)n3)c2nc1C1CC1 [Compound 8a, 4-(5-cyclopropyl-6-methoxypyrazolo[1,5-a]pyrimidin-3-yl)-N-((3S,4S)-4-fluoropyrrolidin-3-yl)pyrimidin-2-amine]"
,,244,331,"COc1cn2ncc(-c3cncc(N[C@@H]4CCCNC4)n3)c2nc1C1CC1 [Compound 11a, (R)-6-(5-cyclopropyl-6-methoxypyrazolo[1,5-a]pyrimidin-3-yl)-N-(piperidin-3-yl)pyrazin-2-amine]"
,,55,83,"COc1cn2ncc(-c3cncc(N[C@H]4CNCC[C@@H]4F)n3)c2nc1C1CC1 [Compound 12a, 6-(5-cyclopropyl-6-methoxypyrazolo[1,5-a]pyrimidin-3-yl)-N-((3S,4S)-4-fluoropiperidin-3-yl)pyrazin-2-amine]"
,,27,19,"COc1cn2ncc(-c3nc(N[C@H]4CNC[C@@H]4F)ncc3F)c2nc1C1CC1 [Compound 13a, 4-(5-cyclopropyl-6-methoxypyrazolo[1,5-a]pyrimidin-3-yl)-5-fluoro-N-((3S,4S)-4-fluoropyrrolidin-3-yl)pyrimidin-2-amine]"
,,22,15,"COc1cn2ncc(-c3nc(N[C@@H]4CCCNC4)ncc3F)c2nc1C1CC1 [Compound 14a, (R)-4-(5-cyclopropyl-6-methoxypyrazolo[1,5-a]pyrimidin-3-yl)-5-fluoro-N-(piperidin-3-yl)pyrimidin-2-amine]"
,,8,5,"COc1cn2ncc(-c3nc(N[C@H]4CNCC[C@@H]4F)ncc3F)c2nc1C1CC1 [Compound 15a, 4-(5-cyclopropyl-6-methoxypyrazolo[1,5-a]pyrimidin-3-yl)-5-fluoro-N-((3S,4S)-4-fluoropiperidin-3-yl)pyrimidin-2-amine]"
